Experimental data: US20050239873A1 (priority 1999, published 2005)

Experiments:
Bcl-xL(ΔC) E92L [1] = target: T1, Bcl-xL(ΔC) E92L (Homo sapiens, UniProt Q07817, E92L); experiment: Pore-forming activity, calcein release from liposomes; format: biochemical; details: Bcl-xL(ΔC) 500 nM; read-out: Pore Inhibition IC50
T1 construct: inferred from Ni-NTA purification and the pET22b(+) NdeI/XhoI cloning); made in house; host or cells: Escherichia coli BL21(DE3) carrying pUB520
Experimental: (§1) Large unilamellar vesicles composed of 60% dioleoylphophatidylcholine and 40% dioleoylphosphatidylglycerol were prepared by the extrusion method of Mayer et al., supra. Lipid stocks, in chloroform, were mixed and dried under a stream of nitrogen gas. The lipid was resuspended by vortexing for 30 min in a solution of 40 mM calcein (Molecular Probes), 25 mM KCl, and 10 mM KOAc, pH 5.0. After 10 freeze-thaw cycles, the lipid suspension was extruded through two 0.1 μm pore diameter Nucleopore filters. Non-entrapped dye was removed by passage over a Sephadex G10 column (Amersham Biosciences). Lipid concentration was measured using the ammonium ferrothiocyanate method (Stewart, Anal. Biochem. 104:10-14, 1980).
(§2) For pore assays, recombinant truncated Bcl-2 family protein or mutant protein (Bcl-xL(ΔC)) (500 nM) was added to large unilamellar vesicles (60 μM lipid concentration) in 100 mM KCl, 10 mM KOAc, pH 5.0, and fluorescence measured (490 nm excitation, 520 nm emission) with a Fluoromax-3 spectrophotometer. Peptides of the BH3 domain were incubated with the BCl-xL(ΔC) 5 min prior to mixing with liposomes. AA1 was added to liposomes 1 min before adding the Bcl-xL(ΔC) protein. Samples for kinetic assays were analyzed in a thermostatted cuvette at 37° C. with constant stirring. Dose responses were measured in black quartz microplates (Hellma) at room temperature. Calcein release was expressed as percentage of maximum release with detergent lysis (0.1% Triton X-100).

Bcl-xL(ΔC) WT [2] = target: T2, Bcl-xL(ΔC) WT (Homo sapiens, UniProt Q07817); experiment: as above; format: biochemical
T2 construct: inferred from Ni-NTA purification and the pET22b(+) NdeI/XhoI cloning); made in house; host or cells: Escherichia coli BL21(DE3) carrying pUB520
Experimental: as §1, §2

Bcl-xL(ΔC) F146L [3] = target: T3, Bcl-xL(ΔC) F146L (Homo sapiens, UniProt Q07817, F146L); experiment: as above; format: biochemical; details: Bcl-xL(ΔC) 500 nM; read-out: Pore Inhibition IC50
T3 construct: inferred from Ni-NTA purification and the pET22b(+) NdeI/XhoI cloning); made in house; host or cells: Escherichia coli BL21(DE3) carrying pUB520
Experimental: as §1, §2

Bcl-xL(ΔC) F97W [4] = target: T4, Bcl-xL(ΔC) F97W (Homo sapiens, UniProt Q07817, F97W); experiment: as above; format: biochemical; details: Bcl-xL(ΔC) 500 nM; read-out: Pore Inhibition IC50
T4 construct: inferred from Ni-NTA purification and the pET22b(+) NdeI/XhoI cloning); made in house; host or cells: Escherichia coli BL21(DE3) carrying pUB520
Experimental: as §1, §2

Bcl-xL(ΔC) E92L [5] = target: T1, Bcl-xL(ΔC) E92L; experiment: Fluorescence anisotropy binding; details: AA1 200 nM or FITC-labeled BH3 peptide 25 nM; read-out: Dissociation Constant KD
Experimental: (§3) A pET22b (Novagen) vector coding for BCl-xL(ΔC), a mutant Bcl-xL protein without the COOH terminal region, was transformed into Escherichia coli BL21(DE3) cells that carried pUB520 (encoding human Arg tRNA) and grown to an A600 of 0.6. Protein expression was induced with 0.1 mM isopropyl β-D-thiogalactoside at 30° C. The cells were resuspended 1:5 (w/v) in PEB buffer (50 mM Tris, pH 8.0, 200 mM NaCl, 0.2 mM phenylmethylsulfonyl fluoride, 5 mM β-mercaptoethanol, 5 mM imidazole, and 1% (v/v) glycerol), and stirred for 20 min at 4° C. Cells were disrupted by pulse sonication, and the soluble fraction was loaded onto a nickel-nitrilotriacetic acid column (Qiagen) equilibrated with PEB buffer. The column was washed with 40 mM imidazole, eluted with 200 mM imidazole, and the protein fractions were pooled and dialyzed (50 mM Tris, pH 8.0, 200 mM NaCl, 0.2 mM phenylmethylsulfonyl fluoride) at 4° C. overnight. The dialyzed protein was concentrated to 10 mg/ml and fractionated on a Superdex 75 gel filtration column (Amersham Biosciences). The fractions containing Bcl-xL(ΔC) protein were pooled, exchanged into low-salt buffer (same as for previous dialysis buffer, except 50 mM NaCI), and loaded onto a MonoQ anion exchange column (Amersham Biosciences). Protein was eluted from the column with increasing NaCl gradient, pooled and concentrated.
(§4) All reagents were prepared in 0.2 μm-filtered PBS with fresh 1 mM DTT. […] Slit widths were set at 10 nm for both excitation and emission.

Bcl-xL(ΔC) A142L [6] = target: T5, Bcl-xL(ΔC) A142L (Homo sapiens, UniProt Q07817, A142L); experiment: Fluorescence anisotropy binding
T5 construct: inferred from Ni-NTA purification and the pET22b(+) NdeI/XhoI cloning); made in house; host or cells: Escherichia coli BL21(DE3) carrying pUB520
Experimental: as §3, §4

Bcl-xL(ΔC) WT [7] = target: T2, Bcl-xL(ΔC) WT; experiment: Fluorescence anisotropy binding; details: AA1 200 nM or FITC-labeled BH3 peptide 25 nM; read-out: Dissociation Constant KD
Experimental: as §3, §4

Bcl-xL(ΔC) F146L [8] = target: T3, Bcl-xL(ΔC) F146L; experiment: Fluorescence anisotropy binding
Experimental: as §3, §4

Bcl-xL(ΔC) F97W [9] = target: T4, Bcl-xL(ΔC) F97W; experiment: Fluorescence anisotropy binding
Experimental: as §3, §4

[10] = system: TAMH cells over-expressing Bcl-xL F97W; experiment: Cytotoxicity (Alamar Blue) in Bcl-xL transfectants; format: cell-based, murine; details: 24 h
Experimental: (§5) TAMH cells were transfected with DNA encoding each of the mutant BCl-xL proteins by lipofection (See Example 1 for method). For analysis of BCl-xL expression, 20 μg of cell protein was separated by 20% SDS-PAGE and transferred to nitrocellulose membranes. Immunodetection of BCl-xL was carried out using rabbit anti-Bcl-xL antibody and Protein A/horseradish peroxidase conjugate, followed by chemiluminescent detection. Cells were grown to about 80% confluence in 96-well plates followed by addition of 100 μl of 2X AA1 or staurosporine (STS) solution in complete medium. STS is a natural product originally isolated from the bacterium Streptomyces and found to be capable of inducing apoptosis in certain cells and which induction of apoptosis could be blocked by the expression of a Bcl-2 family protein. Cell viability was determined spectrophotometrically after 24 h treatment as the ratio of reduced and oxidized Alamar Blue (BIOSOURCE) at 570 nm and 600 nm, respectively. All results were normalized against DMSO controls. LD50 values were calculated by non-linear regression analysis using Prism software (Graphpad).

[11] = system: TAMH cells over-expressing Bcl-xL F146L; experiment: Cytotoxicity (Alamar Blue) in Bcl-xL transfectants; format: cell-based, murine
Experimental: as §5

[12] = system: TAMH cells over-expressing Bcl-xL A142L; experiment: Cytotoxicity (Alamar Blue) in Bcl-xL transfectants; format: cell-based, murine
Experimental: as §5

[13] = system: TAMH cells over-expressing Bcl-xL WT; experiment: Cytotoxicity (Alamar Blue) in Bcl-xL transfectants; format: cell-based, murine; details: 24 h
Experimental: as §5

[14] = system: TAMH cells over-expressing Bcl-xL E92L; experiment: Cytotoxicity (Alamar Blue) in Bcl-xL transfectants; format: cell-based, murine; details: 24 h
Experimental: as §5

Bcl-xL(ΔC) A142L [15] = target: T5, Bcl-xL(ΔC) A142L; experiment: Pore-forming activity, calcein release from liposomes; format: biochemical; details: Bcl-xL(ΔC) 500 nM; read-out: Pore Inhibition IC50
Experimental: as §1
as §2, with “Peptides of the BH3 domain were incubated with the BCl-xL(ΔC) 5 min prior to mixing with liposomes. AA1 was added to liposomes 1 min before adding the Bcl-xL(ΔC) protein.” left out, “X-100). […]” for “X-100).”

[16] = AA1 200 nM or FITC-labeled BH3 peptide 25 nM, read-out: Dissociation Constant KD

T2 sequence (Q07817 1-211 limits assumed, stated change not applied): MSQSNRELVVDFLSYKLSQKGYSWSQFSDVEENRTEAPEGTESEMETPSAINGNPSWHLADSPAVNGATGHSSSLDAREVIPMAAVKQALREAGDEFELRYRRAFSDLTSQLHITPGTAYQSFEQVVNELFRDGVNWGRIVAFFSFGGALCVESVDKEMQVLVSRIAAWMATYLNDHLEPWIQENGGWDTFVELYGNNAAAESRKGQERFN
T3 sequence (Q07817 1-211 F146L limits assumed): as the sequence (Q07817 1-211 limits assumed, stated change not applied) above, with F146L counted along it
T5 sequence (Q07817 1-211 A142L limits assumed): as the sequence (Q07817 1-211 limits assumed, stated change not applied) above, with A142L counted along it
T4 sequence (Q07817 1-211 F97W limits assumed): as the sequence (Q07817 1-211 limits assumed, stated change not applied) above, with F97W counted along it
T1 sequence (Q07817 1-211 E92L limits assumed): as the sequence (Q07817 1-211 limits assumed, stated change not applied) above, with E92L counted along it

Structure (SMILES): CCCCCC[C@H]1C(=O)O[C@H](C)[C@H](NC(=O)c2cccc(NC=O)c2O)C(=O)O[C@@H](C)[C@@H]1OC(=O)CC(C)C [antimycin A1]
- IC50 (Bcl-xL(ΔC) E92L [1]): 2.47 ± 0.3 µM
- effect on Bcl-xL pore-forming activity (Bcl-xL(ΔC) WT [2]): inhibited
- IC50 (Bcl-xL(ΔC) WT [2]; Bcl-xL(ΔC) 500 nM, read-out: Pore Inhibition IC50): 2.03 ± 0.24 µM
- IC50 (Bcl-xL(ΔC) F146L [3]): 3.6 ± 0.4 µM
- IC50 (Bcl-xL(ΔC) F97W [4]): 3.45 ± 0.34 µM
- Kd (Bcl-xL(ΔC) E92L [5]): 5.06 ± 0.86 µM
- increase in Kd compared with Bcl-xL wt(ΔC) (Bcl-xL(ΔC) A142L [6]): 20 fold
- Kd (Bcl-xL(ΔC) A142L [6]; [16]): 41.8 ± 21.4 µM
- Kd (Bcl-xL(ΔC) WT [7]): 2.36 ± 1.41 µM
- decrease in affinity (Bcl-xL(ΔC) F146L [8]): ~10 fold
- Kd (Bcl-xL(ΔC) F146L [8]; [16]): 20 ± 9.4 µM
- increase in Kd compared with Bcl-xL wt(ΔC) (Bcl-xL(ΔC) F97W [9]): 8 fold
- Kd (Bcl-xL(ΔC) F97W [9]; [16]): 17.6 ± 5.2 µM
- Cytotoxicity LD50 [10]: 5.12 ± 0.9 µM
- Cytotoxicity LD50 ([10]; listed as AA1): 5.12 ± 0.94^2 μM
- sensitivity to antimycin A1 [11]: completely insensitive
- Cytotoxicity LD50 ([11]; 24 h): >10 µM
- sensitivity to antimycin A1 [12]: completely insensitive
- Cytotoxicity LD50 ([12]; 24 h): >10 µM
- Cytotoxicity LD50 [13]: 0.47 µM
- Cytotoxicity LD50 ([13]; listed as AA1): 0.47 ± 0.07^ μM
- Cytotoxicity LD50 [14]: 1.72 ± 0.3 µM
- Cytotoxicity LD50 ([14]; listed as AA1): 1.72 ± 0.34^2 μM
- IC50 (Bcl-xL(ΔC) A142L [15]): 4.1 ± 1.24 µM
